Data as given in ChEMBL document CHEMBL1201862, “PubChem BioAssay data set” (2004).
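Method: 48-hour compound exposure of cells in 96-well plates, five concentrations, linear interpolation of endpoints. GI50 = concentration required for 50% inhibition of growth.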 The source made the active and inactive calls. No stated cut-off is given here; in the data, active = GI50 up to about 1.1 µM and inactive = higher.

Key:
Assay in all cases: NCI tumour cell line growth inhibition, 48 h
HL-60 = tested on: HL-60
HCT-15 = tested on: HCT-15
TK-10 = tested on: TK-10
HCC 2998 = tested on: HCC 2998
ACHN = tested on: ACHN
LOX IMVI = tested on: LOX IMVI
SF-268 = tested on: SF-268
HT-29 = tested on: HT-29
U-251 = tested on: U-251
MOLT-4 = tested on: MOLT-4
DLD-1 = tested on: DLD-1
SK-MEL-2 = tested on: SK-MEL-2
UO-31 = tested on: UO-31
M14 = tested on: M14
SR = tested on: SR
NCI/ADR-RES = tested on: NCI/ADR-RES
BT-549 = tested on: BT-549
MCF7 = tested on: MCF7
MDA-N = tested on: MDA-N
PC-3 = tested on: PC-3

SMILES: Cc1nc(-n2nc(-c3ccccc3)cc2-c2ccccc2)sc1C(/C=C/c1ccc([N+](=O)[O-])cc1)=N/NC(N)=S
- GI50 (HL-60): 4.13 µM (inactive)
- GI50 (HCT-15): 28.4 µM
- GI50 (TK-10): > 100 µM (inactive)
- GI50 (HCC 2998): 23.1 µM (inactive)
- GI50 (ACHN): 46.1 µM (inactive)
- GI50 (LOX IMVI): > 10 µM (inactive)
- GI50 (SF-268): 31.4 µM (inactive)
- GI50 (HT-29): 23.7 µM (inactive)
- GI50 (U-251): 47.2 µM (inactive)
- GI50 (MOLT-4): 13.6 µM (inactive)
- GI50 (DLD-1): 43 µM (inactive)
- GI50 (SK-MEL-2): 33.9 µM (inactive)
- GI50 (UO-31): 7.41 µM (inactive)
- GI50 (M14): 43 µM (inactive)

SMILES: O=C(CC(=O)N1N=C(c2ccccc2)C(/N=N/c2ccc(C(=O)O)cc2)C1=O)Nc1ccc(F)cc1 (stereo not drawn)
- GI50 (HL-60): 22 µM (inactive)
- GI50 (HCT-15): 18 µM
- GI50 (TK-10): 33.1 µM (inactive)
- GI50 (ACHN): 23.6 µM (inactive)
- GI50 (LOX IMVI): 12.4 µM (inactive)
- GI50 (SF-268): 15.9 µM (inactive)
- GI50 (HT-29): 48.9 µM (inactive)
- GI50 (DLD-1): 20.9 µM (inactive)
- GI50 (SK-MEL-2): 17.9 µM (inactive)
- GI50 (UO-31): 29.6 µM (inactive)
- GI50 (M14): 38.8 µM (inactive)

SMILES: O=C(CCCC(=O)Nc1ccc(Cl)cc1Cl)CC(=O)c1ccc2ccccc2c1
- GI50 (HL-60): > 100 µM (inactive)
- GI50 (HCT-15): > 100 µM
- GI50 (TK-10): > 100 µM (inactive)
- GI50 (HCC 2998): > 100 µM (inactive)
- GI50 (ACHN): > 100 µM (inactive)
- GI50 (LOX IMVI): > 100 µM (inactive)
- GI50 (SF-268): > 100 µM (inactive)
- GI50 (HT-29): > 100 µM (inactive)
- GI50 (U-251): > 100 µM (inactive)
- GI50 (MOLT-4): > 100 µM (inactive)
- GI50 (DLD-1): > 100 µM (inactive)
- GI50 (SK-MEL-2): > 100 µM (inactive)
- GI50 (UO-31): > 100 µM (inactive)
- GI50 (M14): > 100 µM (inactive)

SMILES: COc1ccc(NC(=O)/C(CC2=Nc3ccc([N+](=O)[O-])cc3NC2O)=N\NC(=O)C[N+](C)(C)C)c(OC)c1 (stereo not drawn)
- GI50 (HL-60): > 100 µM (inactive)
- GI50 (HCT-15): 45.9 µM
- GI50 (TK-10): > 100 µM (inactive)
- GI50 (SR): 18.4 µM (inactive)
- GI50 (NCI/ADR-RES): 40.6 µM (inactive)
- GI50 (BT-549): > 100 µM (inactive)
- GI50 (HCC 2998): > 100 µM (inactive)
- GI50 (ACHN): 67.5 µM (inactive)
- GI50 (LOX IMVI): 62.1 µM (inactive)
- GI50 (SF-268): > 100 µM (inactive)
- GI50 (HT-29): > 100 µM (inactive)
- GI50 (U-251): 40.7 µM (inactive)
- GI50 (MOLT-4): > 100 µM (inactive)
- GI50 (MCF7): > 100 µM (inactive)
- GI50 (MDA-N): > 100 µM (inactive)
- GI50 (PC-3): > 100 µM (inactive)
- GI50 (SK-MEL-2): > 100 µM (inactive)
- GI50 (UO-31): 34.3 µM (inactive)
- GI50 (M14): 56.1 µM (inactive)

SMILES: COC(=O)c1c(C(=O)OC)c(-c2ccccc2)n(-c2ccccc2)c(=O)c1-c1ccccc1
- GI50 (HL-60): > 100 µM (inactive)
- GI50 (HCT-15): > 100 µM
- GI50 (TK-10): > 100 µM (inactive)
- GI50 (SR): > 100 µM (inactive)
- GI50 (HCC 2998): > 100 µM (inactive)
- GI50 (LOX IMVI): 84.5 µM (inactive)
- GI50 (SF-268): 55.7 µM (inactive)
- GI50 (HT-29): > 100 µM (inactive)
- GI50 (U-251): 42.9 µM (inactive)
- GI50 (MOLT-4): > 100 µM (inactive)
- GI50 (DLD-1): 66.5 µM (inactive)
- GI50 (UO-31): 59.7 µM (inactive)
- GI50 (M14): > 100 µM (inactive)

SMILES: Nc1ccccc1/C(O)=C1/CCOC1=O
- GI50 (HL-60): > 100 µM (inactive)
- GI50 (TK-10): > 100 µM (inactive)
- GI50 (SR): > 100 µM (inactive)
- GI50 (ACHN): > 100 µM (inactive)
- GI50 (SF-268): > 100 µM (inactive)
- GI50 (HT-29): > 100 µM (inactive)
- GI50 (U-251): > 100 µM (inactive)
- GI50 (MOLT-4): > 100 µM (inactive)
- GI50 (DLD-1): > 100 µM (inactive)
- GI50 (SK-MEL-2): > 100 µM (inactive)
- GI50 (UO-31): > 100 µM (inactive)
- GI50 (M14): > 100 µM (inactive)

SMILES: CC(C)=NNc1ncnc2[nH]cnc12
- GI50 (HL-60): 3.71 µM (inactive)
- GI50 (HCT-15): 6.01 µM
- GI50 (TK-10): 4.9 µM (inactive)
- GI50 (SR): 4.69 µM (inactive)
- GI50 (NCI/ADR-RES): 5.01 µM (inactive)
- GI50 (BT-549): 48.1 µM (inactive)
- GI50 (HCC 2998): 5.04 µM (inactive)
- GI50 (ACHN): 5.7 µM (inactive)
- GI50 (LOX IMVI): 4.78 µM (inactive)
- GI50 (SF-268): 7.89 µM (inactive)
- GI50 (HT-29): 6.04 µM (inactive)
- GI50 (U-251): 20.4 µM (inactive)
- GI50 (MOLT-4): 9.06 µM (inactive)
- GI50 (MCF7): 4.07 µM (inactive)
- GI50 (MDA-N): 8.79 µM (inactive)
- GI50 (PC-3): 9.04 µM (inactive)
- GI50 (SK-MEL-2): 3.82 µM (inactive)
- GI50 (UO-31): 3.21 µM (inactive)
- GI50 (M14): 4.65 µM (inactive)

SMILES: C/C=C1/CCC2c3[nH]c4ccccc4c3CCN2C1 (stereo not drawn)
- GI50 (HL-60): 58.2 µM (inactive)
- GI50 (TK-10): > 100 µM (inactive)
- GI50 (SR): > 100 µM (inactive)
- GI50 (ACHN): > 100 µM (inactive)
- GI50 (SF-268): > 100 µM (inactive)
- GI50 (HT-29): 45.7 µM (inactive)
- GI50 (U-251): > 100 µM (inactive)
- GI50 (MOLT-4): > 100 µM (inactive)
- GI50 (DLD-1): > 100 µM (inactive)
- GI50 (SK-MEL-2): > 100 µM (inactive)
- GI50 (UO-31): > 100 µM (inactive)
- GI50 (M14): 14.4 µM (inactive)

SMILES: CSCCCNC(=O)[C@H](CSC)NC(=O)c1csc(CCNC(=O)[C@@H](NSc2ccccc2[N+](=O)[O-])C(C)O)n1 (stereo partly drawn)
- GI50 (HL-60): > 100 µM (inactive)
- GI50 (HCT-15): > 100 µM
- GI50 (TK-10): > 100 µM (inactive)
- GI50 (SR): > 100 µM (inactive)
- GI50 (NCI/ADR-RES): > 100 µM (inactive)
- GI50 (BT-549): > 100 µM (inactive)
- GI50 (HCC 2998): > 100 µM (inactive)
- GI50 (ACHN): > 100 µM (inactive)
- GI50 (LOX IMVI): > 100 µM (inactive)
- GI50 (SF-268): > 100 µM (inactive)
- GI50 (HT-29): > 100 µM (inactive)
- GI50 (U-251): > 100 µM (inactive)
- GI50 (MOLT-4): > 100 µM (inactive)
- GI50 (MCF7): > 100 µM (inactive)
- GI50 (MDA-N): > 100 µM (inactive)
- GI50 (PC-3): > 100 µM (inactive)
- GI50 (SK-MEL-2): > 100 µM (inactive)
- GI50 (UO-31): > 100 µM (inactive)
- GI50 (M14): > 100 µM (inactive)
